System: striatal dopamine release
Test: Effect of TRH and tyrosine on striatal dopamine release (in vivo microdialysis)
Design: species or system rats
From the text: Groups of 7 male albino rats were implanted with a jugular venous catheter (for administering the drugs and withdrawing blood samples), and a microdialysis probe into the corpus striatum (for sampling fluid in equilibrium with intrasynaptic fluids).
Animals were placed under deep urethane anesthesia for the duration of the experiment. Each animal received 10 micrograms of TRH or a saline placebo, and/or tyrosine at a dose of 20 micrograms per kilogram, or a saline placebo.
Microdialysis samples (23 microliters of artificial cerebrospinal fluid per sample) were then collected at 15 minute intervals for 150 minutes, and rapidly assayed for dopamine, its chief metabolites (DOPAC and HVA), serotonin, and the serotonin metabolite, 5-HIAA.

Compound	other compounds measured in microdialysate (DOPAC, HVA, serotonin, 5-HIAA) (TRH 10 micrograms alone, anesthetized rats, striatal microdialysis)	increase (from the baseline) in dopamine release (TRH 10 micrograms alone, via jugular venous catheter, urethane-anesthetized male albino rats, corpus striatum microdialysis, after two hours)	effect on dopamine release (higher dose of TRH (50 micrograms) without tyrosine, anesthetized rats, striatal microdialysis)	increase in dopamine release (tyrosine alone, 20 micrograms per kilogram, via jugular venous catheter, anesthetized rats, striatal microdialysis, after two hours)
NC(=O)[C@@H]1CCCN1C(=O)[C@H](Cc1c[nH]cn1)NC(=O)[C@@H]1CCC(=O)N1 [TRH, L-pyroglutamyl-L-histidyl-L-prolineamide]	stable	190%	750%	–
N[C@@H](Cc1ccc(O)cc1)C(=O)O [tyrosine]	–	–	–	about 110%
